Test results taken from patent US11555175B2, “Cell culture methods and media comprising N-acetylcysteine” (Medimmune, LLC, priority 2014, dated 2023).

Experiments:
Assay type in all cases: cell-based
[1] = tested on: NS0 Cell Line 1 (expressing an anti-IL-9 antibody); test: Cell doubling time of NS0 Cell Line 1 at vial thaw with NAC-supplemented medium; conditions: for average cell doubling time at vial thaw: control medium 57.6 hours; for cell doubling time at vial thaw: control medium 109.8 hours
From the text: (§1) To investigate the role of N-Acetylcysteine on thaw recovery, cell viability, cell growth and cell doubling time on subsequent passaging, the following methods were used. Three different NS0 cell lines cultured in one to three different Animal Protein Free (“APF”) media were investigated to study the effect of N-acetylcysteine (NAC) on cell growth at vial thaw and during routine cell expansion. One of the cell lines was a NS0 null host cell that had not been transformed to express a recombinant protein (NS0 Null Cell Line). The other two NS0 cell lines were engineered to express a therapeutic recombinant protein: NS0 Cell Line 1 (expressing an anti-IL-9 antibody) and NS0 Cell Line 2 (expressing BAK502G9, an anti-IL-13 antibody). NS0 Cell Line 1 was thawed and expanded in two different APF media (APF Medium 1 or APF Medium 2) supplemented with various concentrations of NAC ranging from 1.5 mM to 2.5 mM. NS0 Cell Line 2 was thawed and expanded in three different APF media (APF Medium 1, APF Medium 2 or a commercially available NS0 cell culture media (CD Hybridoma+cholesterol from Invitrogen/Gibco)) supplemented with NAC ranging from 0.5 mM to 2.5 mM, while the untransformed host cell line (NS0 Null Cell Line) was thawed in APF medium 2 supplemented with NAC ranging from 0.5 mM to 1.5 mM. NAC was obtained from Sigma and was either added to the medium directly or dissolved in water at 100 mM concentration before adding to the media at the appropriate concentration. All three media (APF Medium 1, APF Medium 2, and CD Hybridoma+cholesterol from Invitrogen/Gibco) supported growth of NS0 cells, as illustrated in FIGS. 1-12. APF Medium 1 and APF Medium 2 contain standard cell culture components including: amino acids, vitamins, lipids, sugar, small peptides, pH buffer, trace metals, inorganic salts, nucleotides, nucleotide precursors, surfactants, reducing agents, cholesterol, lipids and antioxidants.
(§2) Prior to vial thaw, media were temperature and pH equilibrated for a minimum of 1 hour in a 6% CO2 incubator at 37° C. with agitation at 120 rpm on a shaker. Vials were thawed using a 37° C. water bath and the entire contents were transferred equilibrated media. A cell count using Beckman Vi-Cell (an image-based cell viability analyzer) was obtained to measure the viable cell density and viability.
(§3) Viable cell densities during the first 3 to 4 days (i.e. exponential growth phase) at each passage were used to calculate population doubling times during both the first few days after the vial thaw while the cells were recovering from the thaw and during subsequent cell passages when the cells have fully recovered and reached a consistent doubling time from passage to passage.
NS0 cells (i.e. NS0 Cell Line 1) expressing an anti-IL-9 monoclonal antibody were in a frozen stock. Frozen NS0 Cell Line 1 cells were thawed in animal-protein free (APF) medium (i.e. APF media 1 or APF media 2) supplemented with various concentrations of N-acetylcysteine (NAC) and viable cell density during exponential growth phase was used to calculate average cell doubling time as described above.

[2] = tested on: NS0 Cell Line 2 (expressing BAK502G9, an anti-IL-13 antibody); test: Cell doubling time of NS0 Cell Line 2 at vial thaw with NAC-supplemented medium
From the text: as §1, §2, §3
NS0 cells (i.e. NS0 Cell Line 2) expressing a monoclonal antibody (i.e. BAK502G9, an anti-IL-13 antibody) were in a frozen stock. Frozen NS0 Cell Line 2 cells were thawed in animal-protein free (APF) medium (i.e. APF media 1, APF media 2 or CD Hybridoma medium (Gibco) supplemented with cholesterol (1× Invitrogen Cholesterol Lipid Concentrate)) supplemented with various concentrations of N-acetylcysteine (NAC) and viable cell density during exponential growth phase was used to calculate average cell doubling time as described in Example 1.

NS0 Null Cell Line [3] = test: Cell doubling time of NS0 Null Cell Line at vial thaw with NAC-supplemented medium; conditions: for cell doubling time at vial thaw: control medium 67.8 hours
From the text: as §1, §2, §3
NS0 cells (i.e. NS0 Null Cell Line) not transfected with a heterologous protein were in a frozen stock. Frozen NS0 Null Cell Line cells were thawed in animal-protein free (APF) medium (i.e. APF media 2) supplemented with various concentrations of N-acetylcysteine (NAC) and viable cell density during exponential growth phase was used to calculate average cell doubling time as described in Example 1.

[4] = tested on: NS0 Cell Line 1 (expressing an anti-IL-9 antibody); test: Cell doubling time of NS0 Cell Line 1 during cell expansion with NAC-supplemented medium
From the text: as §1, §3
NS0 cells (i.e. NS0 Cell Line 1) expressing an anti-IL-9 monoclonal antibody were cultured in animal-protein free (APF) medium (i.e. APF media 1 or APF media 2). The cells used in the vial thaw studies described in Example 1 were split into the same media (APF media 1 or APF media 2 supplemented with various concentrations of N-acetylcysteine) and allowed to recover in subsequent passages until a consistent doubling time from passage to passage was achieved. Viable cell density during exponential growth phase after recovery was used to calculate average cell doubling time as described in Example 1.

[5] = tested on: NS0 Cell Line 2 (expressing BAK502G9, an anti-IL-13 antibody); test: Cell doubling time of NS0 Cell Line 2 during cell expansion with NAC-supplemented medium
From the text: as §1, §3
NS0 cells (i.e. NS0 Cell Line 2) expressing a monoclonal antibody (i.e. BAK502G9, an anti-IL-13 antibody) were cultured in animal-protein free (APF) medium (i.e. APF media 1, APF media 2 or CD Hybridoma medium (Gibco) supplemented with cholesterol (1× Invitrogen Cholesterol Lipid Concentrate)). The cells used in the vial thaw studies described in Example 2 were split into the same media (APF media 1, APF media 2 or CD Hybridoma medium+cholesterol) supplemented with various concentrations of N-acetylcysteine and allowed to recover in subsequent passages until a consistent doubling time from passage to passage was achieved. Viable cell density during exponential growth phase after recovery was used to calculate average cell doubling time as described in Example 1.

NS0 Null Cell Line [6] = test: Cell doubling time of NS0 Null Cell Line during cell expansion with NAC-supplemented medium; conditions: for Average Doubling Time: APF Medium 2, during expansion, 0.0 mM control 31.9
From the text: as §1, §3
NS0 cells (i.e. NS0 Null Cell Line) not transfected with a heterologous protein were cultured in animal-protein free (APF) medium (i.e. APF media 2). The cells used in the vial thaw studies described in Example 3 were split into the same media (APF media 2 supplemented with various concentrations of N-acetylcysteine) and allowed to recover in subsequent passages until a consistent doubling time from passage to passage was achieved. Viable cell density during exponential growth phase after recovery was used to calculate average cell doubling time as described in Example 1.

[7] = vial thaw, about 1.5 mM to about 2.5 mM NAC, APF media 1 and 2, vs control medium
[8] = vial thaw, about 0.5 mM to about 2.5 mM NAC, three media, vs control medium
[9] = vial thaw, 0.5 mM to 1.5 mM NAC, APF medium 2
[10] = during expansion, about 1.5 mM to about 2.5 mM NAC, APF media 1 and 2
[11] = during expansion, about 0.5 mM to about 2.5 mM NAC, three media

CC(=O)N[C@@H](CS)C(=O)O [NAC, (2R) -2-acetamido-3-sulfanylpropanoic acid]
average cell doubling time at vial thaw ([1]; APF media 1, 1.5 mM NAC): 55.6 h | average cell doubling time at vial thaw ([1]; APF media 1, 2.0 mM NAC): 48.4 h | average cell doubling time at vial thaw ([1]; APF media 1, 2.5 mM NAC): 53.9 h | cell doubling time at vial thaw ([1]; APF media 2, 1.5 mM NAC): 47.5 h | cell doubling time at vial thaw ([1]; APF media 2, 2.0 mM NAC): 56.9 h | cell doubling time at vial thaw ([1]; APF media 2, 2.5 mM NAC): 47.7 h | cell growth [1, 7]: increases | cell viability [1, 7]: increases | average cell doubling time at vial thaw ([2]; APF media 1, 0.5 mM NAC, control medium 44.6 hours): 39.6 h | average cell doubling time at vial thaw ([2]; APF media 1, 1.0 mM NAC, control medium 44.6 hours): 41.6 h | average cell doubling time at vial thaw ([2]; APF media 1, 2.5 mM NAC, control medium 44.6 hours): 37.5 h | average cell doubling time at vial thaw ([2]; APF media 2, 0.5 mM NAC, control medium 77.0 hours): 57.7 h | average cell doubling time at vial thaw ([2]; APF media 2, 1.0 mM NAC, control medium 77.0 hours): 37.0 h | average cell doubling time at vial thaw ([2]; APF media 2, 2.0 mM NAC, control medium 77.0 hours): 39.7 h | average cell doubling time at vial thaw ([2]; CD Hybridoma medium (Gibco) + 1x Cholesterol Lipid Concentrate, 0.5 mM NAC, control medium 35.5 hours): 34.7 h | average cell doubling time at vial thaw ([2]; CD Hybridoma medium (Gibco) + 1x Cholesterol Lipid Concentrate, 1.0 mM NAC, control medium 35.5 hours): 30.6 h | average cell doubling time at vial thaw ([2]; CD Hybridoma medium (Gibco) + 1x Cholesterol Lipid Concentrate, 2.0 mM NAC, control medium 35.5 hours): 30.9 h | cell growth [2, 8]: increases | cell viability [2, 8]: increases | cell doubling time at vial thaw (NS0 Null Cell Line [3]; APF media 2, 0.5 mM NAC): 36.8 h | cell doubling time at vial thaw (NS0 Null Cell Line [3]; APF media 2, 1.0 mM NAC): 38.4 h | cell doubling time at vial thaw (NS0 Null Cell Line [3]; APF media 2, 1.5 mM NAC): 57.9 h | cell growth (NS0 Null Cell Line [3]; [9]): increased | cell viability (NS0 Null Cell Line [3]; [9]): improved | Average Doubling Time ([4]; APF Medium 1, during expansion, 1.5 mM NAC, 0.0 mM control 47.0): 42.3 h | Average Doubling Time ([4]; APF Medium 1, during expansion, 2.0 mM NAC, 0.0 mM control 47.0): 46.1 h | Average Doubling Time ([4]; APF Medium 1, during expansion, 2.5 mM NAC, 0.0 mM control 47.0): 63.6 h | Average Doubling Time ([4]; APF Medium 2, during expansion, 1.5 mM NAC, 0.0 mM control 44.3): 34.8 h | Average Doubling Time ([4]; APF Medium 2, during expansion, 2.0 mM NAC, 0.0 mM control 44.3): 34.6 h | Average Doubling Time ([4]; APF Medium 2, during expansion, 2.5 mM NAC, 0.0 mM control 44.3): 34.8 h | cell growth [4, 10]: increases | cell viability [4, 10]: increases | Average Doubling Time ([5]; APF Medium 1, during expansion, 0.5 mM NAC, 0.0 mM control 41.7): 35.4 h | Average Doubling Time ([5]; APF Medium 1, during expansion, 1.0 mM NAC, 0.0 mM control 41.7): 31.2 h | Average Doubling Time ([5]; APF Medium 1, during expansion, 2.5 mM NAC, 0.0 mM control 41.7): 31.2 h | Average Doubling Time ([5]; APF Medium 2, during expansion, 0.5 mM NAC, 0.0 mM control 38.1): 30.2 h | Average Doubling Time ([5]; APF Medium 2, during expansion, 1.0 mM NAC, 0.0 mM control 38.1): 28.8 h | Average Doubling Time ([5]; APF Medium 2, during expansion, 2.0 mM NAC, 0.0 mM control 38.1): 31.5 h | Average Doubling Time ([5]; Invitrogen CD Hybridoma Medium supplemented with cholesterol, during expansion, 0.5 mM NAC, 0.0 mM control 40.7): 39.7 h | Average Doubling Time ([5]; Invitrogen CD Hybridoma Medium supplemented with cholesterol, during expansion, 1.0 mM NAC, 0.0 mM control 40.7): 37.5 h | Average Doubling Time ([5]; Invitrogen CD Hybridoma Medium supplemented with cholesterol, during expansion, 2.0 mM NAC, 0.0 mM control 40.7): 35.7 h | cell growth [5, 11]: increases | cell viability [5, 11]: increases | Average Doubling Time (NS0 Null Cell Line [6]; 0.5 mM NAC): 26.4 h | Average Doubling Time (NS0 Null Cell Line [6]; 1.0 mM NAC): 26.4 h | Average Doubling Time (NS0 Null Cell Line [6]; 1.5 mM NAC): 26.2 h | cell growth (NS0 Null Cell Line [6]; during expansion, 0.5 mM to 1.5 mM NAC, APF medium 2): increased | cell viability (NS0 Null Cell Line [6]; during expansion, about 0.5 mM to about 2.0 mM NAC, statement covers three NS0 cell lines in three media): increased
